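Where inhibition never reached the appropriate level, the endpoint shown equals the highest concentration tested. Otherwise, values were interpolated linearly from a five-concentration, 48-hour dose response in 96-well plates. GI50: concentration for 50% inhibition of growth. TGI: total growth inhibition.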
Tests used:
Test in all cases: growth of human tumour cells (NCI), 48 h
[1] = test system: K-562 leukemia
[2] = test system: SK-MEL-28 melanoma
[3] = test system: UO-31 renal
[4] = test system: SK-MEL-5 melanoma
[5] = test system: HOP-62 NSCLC
[6] = test system: NCI-H522 lung
[7] = test system: NCI-H226 lung
[8] = test system: CAKI-1 renal
[9] = test system: RXF 393 renal
[10] = test system: MDA-MB-231 breast
[11] = test system: HS 578T breast
[12] = test system: MDA-MB-435
[13] = test system: MOLT-4 leukemia
[14] = test system: MCF7 breast
[15] = test system: OVCAR-4 ovarian
[16] = test system: IGROV1 ovarian
[17] = test system: HCT-15 colon
[18] = test system: SNB-75 CNS
[19] = test system: SK-OV-3 ovarian
[20] = test system: 786-0 renal
[21] = test system: A549 NSCLC
[22] = test system: OVCAR-5 ovarian
[23] = test system: SNB-19 CNS
[24] = test system: SF-295 CNS
[25] = test system: HCT-116 colon
[26] = test system: PC-3 prostate
[27] = test system: BT-549 breast
[28] = test system: EKVX NSCLC
[29] = test system: CCRF-CEM leukemia
[30] = test system: HCC-2998 colon
[31] = test system: NCI/ADR-RES ovarian
[32] = test system: NCI-H460 lung
[33] = test system: COLO 205 colon
[34] = test system: A498 renal
[35] = test system: T-47D breast
[36] = test system: DU-145 prostate
[37] = test system: MALME-3M melanoma
[38] = test system: TK-10 renal
[39] = test system: M14 melanoma
[40] = test system: ACHN renal
[41] = test system: HT29 colon
[42] = test system: SF-539 CNS
[43] = test system: RPMI-8226 leukemia
[44] = test system: SW-620 colon
[45] = test system: SK-MEL-2 melanoma
[46] = test system: NCI-H23 lung
[47] = test system: LOX IMVI melanoma
[48] = test system: UACC-257 melanoma
[49] = test system: SR leukemia
[50] = test system: SN12C renal
[51] = test system: UACC-62 melanoma
[52] = test system: OVCAR-8 ovarian
[53] = test system: OVCAR-3 ovarian
[54] = test system: HL-60(TB) leukemia
[55] = test system: KM12 colon
[56] = test system: U251 CNS
[57] = test system: HOP-92 NSCLC
[58] = test system: SF-268 CNS

For `Cn1ccnc1C(=O)/C=C/c1ccc(C(=O)Nc2ccc(F)cc2)cc1`, the GI50 [1] was 163 nM, the TGI [1] was > 50000 nM and the GI50 [2] was 1800 nM. For the same molecule, the TGI [2] was 9650 nM, the GI50 [3] was 814 nM and the TGI [3] was 2690 nM. The GI50 [4] was 1490 nM, the TGI [4] was 4630 nM and the GI50 [5] was 1380 nM. For the same molecule, the TGI [5] was > 16400 nM, the GI50 [6] was 1170 nM and the TGI [6] was 4700 nM. For the same molecule, the GI50 [7] was 1510 nM, the TGI [7] was > 12400 nM and the GI50 [8] was 1070 nM. The TGI [8] was > 50000 nM, the GI50 [9] was 780 nM and the TGI [9] was 1640 nM. The GI50 [10] was 1710 nM, the TGI [10] was > 50000 nM and the GI50 [11] was 1660 nM. For the same molecule, the TGI [11] was > 50000 nM, the GI50 [12] was 1590 nM and the TGI [12] was 11000 nM. For the same molecule, the GI50 [13] was 1480 nM, the TGI [13] was > 50000 nM and the GI50 [14] was 472 nM. The TGI [14] was > 50000 nM, the GI50 [15] was 1380 nM and the TGI [15] was > 50000 nM. For the same molecule, the GI50 [16] was 1240 nM, the TGI [16] was 4440 nM and the GI50 [17] was 274 nM. The TGI [17] was 2500 nM, the GI50 [18] was 919 nM and the TGI [18] was 16800 nM. The GI50 [19] was 2550 nM, the TGI [19] was > 50000 nM and the GI50 [20] was 1140 nM. The TGI [20] was 3140 nM, the GI50 [21] was 1410 nM and the TGI [21] was > 50000 nM. For the same molecule, the GI50 [22] was 1540 nM, the TGI [22] was 26500 nM and the GI50 [23] was 1360 nM. For the same molecule, the TGI [23] was 6310 nM, the GI50 [24] was 1820 nM and the TGI [24] was > 37100 nM. It also gave a GI50 [25] of 343 nM, a TGI [25] of 1120 nM and a GI50 [26] of 1250 nM. For the same molecule, the TGI [26] was > 50000 nM, the GI50 [27] was 667 nM and the TGI [27] was 4220 nM. For the same molecule, the GI50 [28] was 2200 nM, the TGI [28] was 20800 nM and the GI50 [29] was 853 nM. For the same molecule, the TGI [29] was > 50000 nM, the GI50 [30] was 915 nM and the TGI [30] was 2000 nM. For the same molecule, the GI50 [31] was 1250 nM, the TGI [31] was > 50000 nM and the GI50 [32] was 1060 nM. For the same molecule, the TGI [32] was 2660 nM, the GI50 [33] was 1470 nM and the TGI [33] was 5420 nM. It also gave a GI50 [34] of 1050 nM, a TGI [34] of 3530 nM and a GI50 [35] of 1240 nM. For the same molecule, the TGI [35] was > 50000 nM, the GI50 [36] was 1610 nM and the TGI [36] was > 50000 nM. For the same molecule, the GI50 [37] was 3270 nM, the TGI [37] was > 50000 nM and the GI50 [38] was 1510 nM. For the same molecule, the TGI [38] was 7490 nM, the GI50 [39] was 1160 nM and the TGI [39] was 3810 nM. The GI50 [40] was 1010 nM, the TGI [40] was 2110 nM and the GI50 [41] was 877 nM. For the same molecule, the TGI [41] was > 50000 nM, the GI50 [42] was 851 nM and the TGI [42] was 1790 nM. For the same molecule, the GI50 [43] was 224 nM, the TGI [43] was 1540 nM and the GI50 [44] was 223 nM. For the same molecule, the TGI [44] was 7970 nM, the GI50 [45] was 5660 nM and the TGI [45] was 39700 nM. It also gave a GI50 [46] of 1300 nM, a TGI [46] of 5360 nM and a GI50 [47] of 520 nM. For the same molecule, the TGI [47] was 1350 nM, the GI50 [48] was 3140 nM and the TGI [48] was > 50000 nM. For the same molecule, the GI50 [49] was 171 nM, the TGI [49] was 3110 nM and the GI50 [50] was 1370 nM. For the same molecule, the TGI [50] was > 50000 nM, the GI50 [51] was 1370 nM and the TGI [51] was 4860 nM. The GI50 [52] was 1490 nM, the TGI [52] was > 50000 nM and the GI50 [53] was 812 nM. It also gave a TGI [53] of 4280 nM, a GI50 [54] of 933 nM and a TGI [54] of 3120 nM. For the same molecule, the GI50 [55] was 481 nM, the TGI [55] was 2000 nM and the GI50 [56] was 747 nM. The TGI [56] was 2710 nM, the GI50 [57] was 1310 nM and the TGI [57] was > 41000 nM. The GI50 [58] was 1910 nM and the TGI [58] was > 50000 nM.

Reference: PubChem BioAssay (NCI)
